Laboratory results: the supplement of paper PMC9265050, “Inhibition of RNA Binding in SND1 Increases the Levels of miR-1-3p and Sensitizes Cancer Cells to Navitoclax” (Cancers, 2022)

Tested on: SW480
Experiment: drug sensitivity score (DSS, integrated dose-response area); higher = more sensitive (stronger viability reduction); extreme values may be limits of the assay
In short: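 The drug sensitivity score is the integrated area under a fitted non-linear dose–response model. It was derived from SW480 cells with doxycycline-inducible control or SND1-targeting shRNA, induced with 0.1 µg/mL doxycycline for 7 days and plated at 1000 cells per well on 384-well plates of 525 commercially available small-molecule inhibitors at five concentrations. CellTiter-Glo measured viability after 72 h.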

[1] = shRNA: SND1 shRNA1 (SND1 silenced)
[2] = shRNA: SND1 shRNA2 (SND1 silenced)
[3] = shRNA: control shRNA (non-targeting)

Row | Compound | drug sensitivity score [1] | drug sensitivity score [2] | drug sensitivity score [3]
1 | Cn1nccc1Nc1nccc(-c2ccn([C@H](CO)c3ccc(Cl)c(F)c3)c(=O)c2)n1 [GDC-0994] | 5.9 DSS | 0.2 DSS | 5.2 DSS
2 | Oc1c2ccccc2c2c3c(cccc13)N=N2 | 1.8 DSS | 3.4 DSS | 0.6 DSS
3 | CC1(C)CCC(c2ccc(Cl)cc2)=C(CN2CCN(c3ccc(C(=O)NS(=O)(=O)c4ccc(N[C@H](CCN5CCOCC5)CSc5ccccc5)c(S(=O)(=O)C(F)(F)F)c4)cc3)CC2)C1 [Navitoclax] | 7.4 DSS | 5.6 DSS | 0 DSS
4 | NC(=O)Nc1sc(-c2ccc(F)cc2)cc1C(N)=O [TPCA-1] | 3.8 DSS | – | 2.3 DSS
5 | CN1CCN(c2ccc3nc(-c4c(N)c5c(F)cccc5[nH]c4=O)[nH]c3c2)CC1 [Dovitinib] | 0.1 DSS | 0 DSS | 0 DSS
6 | CNC(=O)c1ccc(N2C(=S)N(c3ccc(C#N)c(C(F)(F)F)c3)C(=O)C23CCC3)cc1F [RD162] | 0.3 DSS | 2.7 DSS | 0.8 DSS
7 | CC(C)c1cc(C(=O)N2Cc3ccc(CN4CCN(C)CC4)cc3C2)c(O)cc1O [Onalespib] | 11.3 DSS | 9.4 DSS | 13.8 DSS
8 | O=C(Nc1nc2cccc(-c3ccc(CN4CCS(=O)(=O)CC4)cc3)n2n1)C1CC1 [Filgotinib] | 1.5 DSS | 0 DSS | 3.6 DSS
9 | Oc1ncnc2[nH]ncc12 [Allopurinol] | 0.2 DSS | 0 DSS | 1.2 DSS
10 | O=C(c1cccc(Cl)c1F)N1CCN(Cc2cccc(Nc3nccs3)n2)CC1 [MK-8745] | 1.7 DSS | – | 1.9 DSS
11 | COc1cc(Nc2ncc(F)c(Nc3ccc4c(n3)N(COP(=O)(O)O)C(=O)C(C)(C)O4)n2)cc(OC)c1OC [Fostamatinib] | 3.4 DSS | – | 2.6 DSS
12 | C=C1C[C@@H]2[C@H](CC[C@]3(C)C(=O)CC[C@@H]23)[C@@]2(C)C=CC(=O)C=C12 [Exemestane] | 3.1 DSS | 3 DSS | 4.6 DSS
13 | Cc1nc(=O)c2cc(CN(C)c3ccc(C(=O)N[C@@H](CCC(=O)O)C(=O)O)s3)ccc2[nH]1 [Raltitrexed] | 5.2 DSS | 0 DSS | 4.8 DSS
14 | CN[C@@H]1C[C@H]2O[C@@](C)([C@@H]1OC)n1c3ccccc3c3c4c(c5c6ccccc6n2c5c31)C(=O)N[C@H]4O [UCN-01] | 24 DSS | 25 DSS | 25.4 DSS
15 | Cc1ccc(C(=O)Nc2ccc(CN3CCN(C)CC3)c(C(F)(F)F)c2)cc1C#Cc1cnc2cccnn12 [Ponatinib] | 5.9 DSS | 4.8 DSS | 4.4 DSS
16 | CC(C)C[C@H](NC(=O)[C@@H](COC(C)(C)C)NC(=O)[C@H](Cc1ccc(O)cc1)NC(=O)[C@H](CO)NC(=O)[C@H](Cc1c[nH]c2ccccc12)NC(=O)[C@H](Cc1cnc[nH]1)NC(=O)[C@@H]1CCC(=O)N1)C(=O)N[C@@H](CCCNC(=N)N)C(=O)N1CCC[C@H]1C(=O)NNC(N)=O [Goserelin] | 0 DSS | 0 DSS | 0 DSS
17 | CCNC(=O)C[C@@H]1N=C(c2ccc(Cl)cc2)c2cc(OC)ccc2-n2c(C)nnc21 | 2.7 DSS | 0 DSS | 0.6 DSS
18 | CCN(CC)CCCC(C)Nc1c2ccc(Cl)cc2nc2ccc(OC)cc12 (configuration not stated) [Mepacrine] | 21.5 DSS | – | 21.5 DSS
19 | COc1cc2ncnc(Nc3ccc(F)c(Cl)c3)c2cc1OCCCN1CCOCC1 [Gefitinib] | 3.6 DSS | 6.6 DSS | 3.7 DSS
20 | CCC(C)(C)C(=O)O[C@H]1C[C@@H](C)C=C2C=C[C@H](C)[C@H](CC[C@@H]3C[C@@H](O)CC(=O)O3)[C@H]21 [Simvastatin] | 1.2 DSS | – | 4.5 DSS
21 | CCn1cc(-c2ccnc3[nH]c(-c4cccc(CN(C)C)c4)cc23)c(-c2ccc(NC(=O)N(C)C)cc2)n1 | 7.8 DSS | 9.5 DSS | 10.2 DSS
22 | COc1c(OCCCN2CCOCC2)ccc2c1N=C(NC(=O)c1cnc(N)nc1)N1CCN=C21 [Copanlisib] | 4 DSS | 0.3 DSS | 0 DSS
23 | O=C(CCCCCCC(=O)Nc1ccc([C@H]2O[C@@H](CSc3nc(-c4ccccc4)c(-c4ccccc4)o3)C[C@@H](c3ccc(CO)cc3)O2)cc1)NO [Tubacin] | 4.1 DSS | 2.7 DSS | 6.2 DSS
24 | CC(C)C[C@H](NC(=O)[C@H](CCc1ccccc1)NC(=O)CN1CCOCC1)C(=O)N[C@@H](Cc1ccccc1)C(=O)N[C@@H](CC(C)C)C(=O)[C@@]1(C)CO1 [Carfilzomib] | 22.9 DSS | 24.5 DSS | 24.6 DSS
